Measurements reported in ChEMBL document CHEMBL1121966, “(2R*,3S*)-1-[125I]Iodo-2,3-bis(4-hydroxyphenyl)pentane ([125I]iodonorhexestrol) and (2R*,3S*)-1-[77Br]Bromo-2,3-bis(4-hydroxyphenyl)pentane ([77Br]bromonorhexestrol), two gamma-emitting estrogens that show receptor-mediated uptake by target tissues in vivo” (1982).

Assay: Solvolytic stability of compound was measured relative to p-hydroxyphenethyl bromide
Format: functional, Rattus norvegicus

Compound	1/krel
C[C@]12CC[C@@H]3c4ccc(O)cc4CC[C@H]3[C@@H]1C[C@@H](Br)[C@@H]2O	1276
C[C@]12CC[C@@H]3c4ccc(O)cc4CC[C@H]3[C@@H]1C[C@@H](CBr)C2O (some centres not stated)	451
